For 5 compounds, IC50 results are on record in BindingDB's records for doi:10.1016/j.bmcl.2010.10.020 (Incyte, 2010).

Assay [1] can be described thus: Antagonist activity at human CCR2 assessed as inhibition of MCP1 induced chemotaxis after 30 mins.
Assay [2] is described as follows: Antagonist activity at mouse CCR2 assessed as inhibition of MCP1 induced chemotaxis after 30 mins.

In the case of `CCO[C@H]1CN([C@H]2CC[C@@H](c3ccccc3)CC2)C[C@@H]1NC(=O)CNC(=O)c1cccc(C(F)(F)F)c1` [N-(2-((3S,4S)-4-ethoxy-1-(cis-4-phenylcyclohexyl)pyrrolidin-3-ylamino)-2-oxoethyl)-3-(trifluoromethyl)benzamide], the 50% inhibitory concentration (IC50) (commonly the concentration that inhibits the measured activity by half) in assay [1] is 6.5 nM; in assay [2] it was 14 nM.
With `CCO[C@H]1CN([C@H]2CC[C@@](O)(c3ccccc3)CC2)C[C@@H]1NC(=O)CNC(=O)c1cccc(C(F)(F)F)c1` [N-(2-((3S,4S)-4-ethoxy-1-(cis-4-hydroxy-4-phenylcyclohexyl)pyrrolidin-3-ylamino)-2-oxoethyl)-3-(trifluoromethyl)benzamide], the values for the half-maximal inhibitory concentration (IC50) in assay [1] and in assay [2] were 3 nM and 444 nM, respectively.
On to `O=C(CNC(=O)c1cccc(C(F)(F)F)c1)N[C@H]1CN([C@H]2CC[C@@H](c3ccccc3)CC2)C[C@@H]1O` [N-(2-((3S,4S)-4-hydroxy-1-(cis-4-phenylcyclohexyl)pyrrolidin-3-ylamino)-2-oxoethyl)-3-(trifluoromethyl)benzamide], for which the IC50 in assay [1] is 12 nM; in assay [2], 265 nM.
Regarding `CCO[C@H]1CN([C@H]2CC[C@@](O)(c3ccc(C)cc3)CC2)C[C@@H]1NC(=O)CNC(=O)c1cccc(C(F)(F)F)c1` [N-(2-((3S,4S)-4-ethoxy-1-(cis-4-hydroxy-4-p-tolylcyclohexyl)pyrrolidin-3-ylamino)-2-oxoethyl)-3-(trifluoromethyl)benzamide], the half-maximal inhibitory concentration (IC50) in assay [1] came to 1.4 nM; in assay [2], 13 nM.
In the case of `CCCO[C@H]1CN([C@H]2CC[C@@H](c3ccccc3)CC2)C[C@@H]1NC(=O)CNC(=O)c1cccc(C(F)(F)F)c1` [N-(2-oxo-2-((3S,4S)-1-(cis-4-phenylcyclohexyl)-4-propoxypyrrolidin-3-ylamino)ethyl)-3-(trifluoromethyl)benzamide], the results for the IC50 in assay [1] and in assay [2] were 1.8 nM and 158 nM, respectively.
